Test results published in paper PMC8691750, “Euphorbia Factor L2 ameliorates the Progression of K/BxN Serum-Induced Arthritis by Blocking TLR7 Mediated IRAK4/IKKβ/IRF5 and NF-kB Signaling Pathways” (Frontiers in Pharmacology, 2021).

Legend:
[1] = system: IL-1β and IL-6 in the ankle; assay: Immunochemistry staining for IL-1β and IL-6 in ankles; assay type: in vivo, C57BL/6 mice; settings: STA mice; EFL2 15 or 40 mg/kg
Experimental: The dissected left ankles were fixed in 4% formaldehyde overnight. Embedding, de-paraffinization, and re-hydration of the ankle sections were the same as described for H&E staining. After treated with 3% […] for 10 min, the tissue sections were immersed in a 10 mM sodium citrate buffer (pH 6.0) for 15 min at 95°C, and washed with PBS. The sections were then blocked with 5% goat serum in PBS, and incubated with primary antibodies overnight at 4°C. Primary antibodies were as follows: rabbit anti-mouse IL-1β (1:600, Abcam, China); rabbit anti-mouse IL-6 (1:50, Abcam, China). The signal was visualized using an Envision System (DAKO, United States). The images were then acquired by microscopy (Leica DMil).

RAW264.7 cells = assay: Cell viability, CCK8 assay, RAW264.7; assay type: cell-based, mouse; settings: CCK8, 0.1-100 μM, 20 h
Experimental: RAW264.7 cells, a mouse macrophage cell line, were cultured in DMEM medium containing 10% fetal bovine serum (FBS), 1% penicillin-streptomycin and maintained at 37 °C in 5% CO2 humidified air. Bone marrow-derived macrophages (BMDMs) generation was performed as following description. In brief, bone marrow cells were harvested from tibias and femurs of C57BL/6 mice and differentiated for 7 days in DMEM medium supplemented with 10% FBS, 1% penicillin-streptomycin and 50 ng/ml M-CSF. For human peripheral blood mononuclear cells (PBMCs) preparation, 5 ml peripheral venous blood was obtained from healthy donors in West China Hospital. PBMCs were isolated with Human Lymphocyte Separation Medium (LTS1077, Tian Jing, China) according to the manufacturer’s instructions. The experimental protocols were performed according to the approved guidelines established by the Institutional Human Research Subject Protection Committee of the Ethics Committee of West China Hospital, Sichuan University, China.
The effects of EFL2 on RAW264.7 cells, BMDMs and PBMCs viability were evaluated by Cell Counting Kit-8 (CCK8) assay (Dojindo, Japan). […] The optical absorbance at 450 nm was read with a Biotek Eon™ microplate reader (Biotek, Vermont, United States).

[2] = system: TLR7-mediated NF-κB signaling pathway (IKKα/β, IκBα, p65); assay: Western blot, NF-κB pathway in R837-stimulated RAW264.7 cells; assay type: cell-based, mouse; settings: R837-stimulated RAW264.7
Experimental: RAW264.7 cells (2×10^6 cells/well) were plated into 6-well plates and then incubated at 37°C in 5% CO2 for 24 h. After incubated with various concentrations of EFL2 (1, 5 and 10 µM) for 1 h, cells were then stimulated by R837 (20 μg/ml) for 30 min. Cell lysates were prepared by direct lysis in 20 µL IP buffer (Beyotime Biotechnology, Shanghai, China). After obtaining the whole cell extracts, the cytosolic and nuclear were seperated using Nuclear and Cytoplasmic Protein Extraction Kit (Beyotime Biotechnology, Shanghai, China). BCA Protein Assay Kit (Beyotime Biotechnology, Nantong, China) was applied to determine the protein concentrations. The bands corresponding to p- IKKα/β, IKKα/β, p-IκBα, IκBα, p-p65, p65, p-IRAK4, IRAK4, p-IKKβ, IKKβ, p-IRF5, IRF5, β-actin and Lamin B were visualized using a Western Blot Detection Chemiluminescence Kit (Merck). Protein extracted from the total lysates/cytoplasm and nucleus was quantified in relation to β-actin and Lamin B bands, respectively.
The antibodies used in the experiments were as follows: rabbit anti-mouse IKKα/β polyclonal antibody (1:1,000, Abways, China), rabbit anti-mouse IκBα polyclonal antibody (1:1,000, Abgent, China), rabbit anti-mouse p65 polyclonal antibody (1:1,000, Abgent, China), rabbit anti-mouse phosphorylated IKKα (Ser176)/β (Ser177) (1:1,000, Abways, China), rabbit anti-mouse phosphorylated IκBα (1:1,000, Abcam, United States), rabbit anti-mouse phosphorylated p65 (1:1,000, Abcam, United States), rabbit anti-mouse IRAK4 polyclonal antibody (1:1,000, Proteintech, United States), rabbit anti-mouse phosphorylated IRAK4 (Thr345/Ser346) (1:1,000, Affinity, United States), rabbit anti-mouse IKKβ polyclonal antibody (1:1,000, Abbkine, United States), rabbit anti-mouse phosphorylated IKKβ (Ser177) (1:1,000, Abways, China), rabbit anti-mouse IRF5 polyclonal antibody (1:1,000, Immunoway, United States), rabbit anti-mouse phosphorylated IRF5 (Ser437) (1:1,000, Affinity, United States), anti-mouse actin monoclonal antibody (1:20,000, Transgen, China) and rabbit anti-mouse LaminB monoclonal antibody (1:5,000, Abways, China).

For `C=C1C(OC(=O)c2ccccc2)CC2C(C=C(C)C(=O)C3(OC(C)=O)CC(C)C(OC(=O)c4ccccc4)C3C1OC(C)=O)C2(C)C` (stereo not drawn) [EFL2, Euphorbia factor L2], the “IL-1β and IL-6 production in local inflamed joints (immunohistochemical staining)” value [1] was “could inhibit”, the “concentration at which significant cytotoxicity is displayed” value (RAW264.7 cells) was no less than 25 µM and the IKKα/β phosphorylation ([2]; EFL2 1, 5, 10 μM) was “effectively inhibited”. For the same compound, the IκB-α phosphorylation ([2]; EFL2 1, 5, 10 μM) was “effectively inhibited”, the p65 phosphorylation ([2]; EFL2 1, 5, 10 μM) was “effectively inhibited” and the “NF-κB subunit p65 translocation activity” value ([2]; EFL2, also immunofluorescence) was “significantly suppressed”.
